Measured values published in publication PMC11073913 (Archiv der Pharmazie, 2024).
Where “and” joins values, the source holds several entries; their conditions need not be identical. Equal entries are not always repeated.

Tests used:
ovine COX-1 = biological target: T1, ovine COX-1 (Ovis aries, UniProt P05979); test: In vitro COX-1 inhibitory assay; assay type: biochemical
T1 sequence (P05979 25-600): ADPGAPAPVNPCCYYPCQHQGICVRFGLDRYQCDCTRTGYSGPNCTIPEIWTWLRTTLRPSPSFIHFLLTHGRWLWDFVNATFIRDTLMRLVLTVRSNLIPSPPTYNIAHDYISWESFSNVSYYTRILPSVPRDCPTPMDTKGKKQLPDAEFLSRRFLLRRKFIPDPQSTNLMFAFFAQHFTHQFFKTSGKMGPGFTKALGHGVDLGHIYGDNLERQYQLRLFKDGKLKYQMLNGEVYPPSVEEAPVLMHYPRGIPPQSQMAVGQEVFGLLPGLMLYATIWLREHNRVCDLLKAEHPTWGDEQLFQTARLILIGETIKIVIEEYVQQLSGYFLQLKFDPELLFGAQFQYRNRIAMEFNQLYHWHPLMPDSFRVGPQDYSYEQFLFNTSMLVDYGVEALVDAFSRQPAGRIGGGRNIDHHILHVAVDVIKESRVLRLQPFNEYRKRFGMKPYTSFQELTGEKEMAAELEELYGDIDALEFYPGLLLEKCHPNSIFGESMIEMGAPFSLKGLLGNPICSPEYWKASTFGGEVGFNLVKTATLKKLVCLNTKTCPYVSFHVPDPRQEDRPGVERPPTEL

human recombinant COX-2 = biological target: T2, human recombinant COX-2 (Homo sapiens, UniProt P35354); test: In vitro COX-2 inhibitory assay; assay type: biochemical; conditions: for Enhancement of anti-COX-2 activity by p-Cl on benzylidine: compared with unsubstituted compounds 4b, 4c, 4g, 4h respectively
T2 sequence (P35354 18-604): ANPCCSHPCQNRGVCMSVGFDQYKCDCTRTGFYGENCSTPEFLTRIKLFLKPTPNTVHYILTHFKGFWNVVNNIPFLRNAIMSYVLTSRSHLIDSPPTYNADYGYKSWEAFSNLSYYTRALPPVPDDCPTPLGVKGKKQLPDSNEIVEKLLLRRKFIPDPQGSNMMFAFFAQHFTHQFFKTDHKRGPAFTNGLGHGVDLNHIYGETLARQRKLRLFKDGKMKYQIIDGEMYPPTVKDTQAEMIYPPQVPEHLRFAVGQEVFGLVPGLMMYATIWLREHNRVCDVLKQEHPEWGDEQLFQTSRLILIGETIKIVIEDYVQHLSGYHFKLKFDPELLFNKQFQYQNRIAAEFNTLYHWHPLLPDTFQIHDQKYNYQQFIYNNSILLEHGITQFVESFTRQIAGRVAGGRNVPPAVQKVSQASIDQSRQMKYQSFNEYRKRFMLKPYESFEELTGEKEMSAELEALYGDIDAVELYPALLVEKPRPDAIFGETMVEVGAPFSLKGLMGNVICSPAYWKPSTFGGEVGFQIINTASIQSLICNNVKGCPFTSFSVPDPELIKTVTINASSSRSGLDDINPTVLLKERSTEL

soybean 15-LOX = biological target: T3, soybean 15-LOX (Glycine max, UniProt P08170); test: In vitro 15-LOX inhibitory assay; assay type: biochemical
T3 sequence (P08170 1-839): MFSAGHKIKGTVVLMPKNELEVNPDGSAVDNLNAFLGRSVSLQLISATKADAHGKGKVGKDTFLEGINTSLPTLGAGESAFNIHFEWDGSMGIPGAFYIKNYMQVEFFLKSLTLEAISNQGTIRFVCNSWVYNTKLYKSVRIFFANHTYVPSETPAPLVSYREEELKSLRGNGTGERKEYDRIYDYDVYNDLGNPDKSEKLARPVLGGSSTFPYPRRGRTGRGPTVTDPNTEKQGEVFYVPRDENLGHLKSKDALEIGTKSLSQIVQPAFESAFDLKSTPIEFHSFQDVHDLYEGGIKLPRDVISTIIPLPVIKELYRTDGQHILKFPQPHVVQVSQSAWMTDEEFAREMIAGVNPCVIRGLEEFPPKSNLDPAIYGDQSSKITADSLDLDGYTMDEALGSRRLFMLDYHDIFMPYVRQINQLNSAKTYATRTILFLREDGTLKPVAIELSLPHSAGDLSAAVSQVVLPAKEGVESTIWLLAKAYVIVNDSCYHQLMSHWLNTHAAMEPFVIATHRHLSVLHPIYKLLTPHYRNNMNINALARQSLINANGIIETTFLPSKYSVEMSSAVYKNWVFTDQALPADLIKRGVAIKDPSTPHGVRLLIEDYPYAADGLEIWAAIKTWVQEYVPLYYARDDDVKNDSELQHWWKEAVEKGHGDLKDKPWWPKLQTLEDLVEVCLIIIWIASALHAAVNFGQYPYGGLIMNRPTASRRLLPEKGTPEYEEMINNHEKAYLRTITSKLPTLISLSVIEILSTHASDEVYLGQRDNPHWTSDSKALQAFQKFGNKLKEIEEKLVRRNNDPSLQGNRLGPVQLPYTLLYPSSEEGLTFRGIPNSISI

[1] = test system: LPS-induced TNF-α production in RAW 264.7 cells; conditions: for TNF-α level: cells treated with 25 μM compound, LPS-activated RAW 264.7
[2] = test system: LPS-induced IL-6 production in RAW 264.7 cells; conditions: for IL-6 level: cells treated with 25 μM compound, LPS-activated RAW 264.7
[3] = test system: LPS-induced ROS production in RAW 264.7 cells; test: cells; conditions: Mus musculus, RAW264.7, 18 h, read-out: ROS (IC50)

| SMILES | IC50 (ovine COX-1) | IC50 (human recombinant COX-2) | SI (Selectivity index = COX-1 IC50/COX-2 IC50) (human recombinant COX-2) | IC50 (soybean 15-LOX) | TNF-α level [1] | IL-6 level [2] | IC50 [3] | Enhancement of anti-COX-2 activity by p-Cl on benzylidine (human recombinant COX-2) | TNF-α inhibitory activity, fold more than unsubstituted benzylidine 4h ([1]; vs 4h) | TNF-α inhibition, fold more potent than celecoxib ([1]; vs celecoxib) | IL-6 inhibitory activity, folds more than unsubstituted benzylidine 4h ([2]; vs 4h) |
| --- | --- | --- | --- | --- | --- | --- | --- | --- | --- | --- | --- |
| O=C(CSC1=N/C(=C\c2ccc(Cl)cc2)C(=O)N1c1ccccc1)Nc1ccc(Br)cc1 [Compound 4m, (Z)-N-(4-Bromophenyl)-2-[(4-(4-chlorobenzylidene)-5-oxo-1-phenyl-4,5-dihydro-1H-imidazol-2-yl)thio]acetamide] | 8 ± 1.31 µM | 180 ± 82 nM | 44.12 | 4.21 ± 1.53 µM | 27.89 pg/mL and 27.89 ± 0.90 pg/mL | 27.16 ± 0.9 pg/mL | 38.4 ± 1.37 µM | – | – | – | – |
| Cc1ccc(NC(=O)CSC2=N/C(=C\c3ccc(Cl)cc3)C(=O)N2c2ccccc2)cc1 [Compound 4n, (Z)-2-{[4-(4-Chlorobenzylidene)-5-oxo-1-phenyl-4,5-dihydro-1H-imidazol-2-yl]thio}-N-(4-tolyl)acetamide] | 9.45 ± 1.33 µM | 120 ± 53 nM | 79.96 | 3.13 ± 1.49 µM | 37.28 ± 14.95 pg/mL | 36.56 ± 14.95 pg/mL | 41 ± 1.39 µM | – | – | – | – |
| COc1ccc(NC(=O)CSC2=N/C(=C\c3ccc(Cl)cc3)C(=O)N2c2ccccc2)cc1 [Compound 4o, (Z)-2-{[4-(4-Chlorobenzylidene)-5-oxo-1-phenyl-4,5-dihydro-1H-imidazol-2-yl]thio}-N-(4-methoxyphenyl)acetamide] | 11 ± 1.53 µM | 100 ± 44 nM | 111.27 | 3.24 ± 1.46 µM | 29.10 ± 4.54 pg/mL | 28.37 pg/mL and 28.37 ± 4.54 pg/mL | 24.2 ± 1.26 µM | – | – | – | – |
| COc1cc(NC(=O)CSC2=N/C(=C\c3ccc(Cl)cc3)C(=O)N2c2ccccc2)cc(OC)c1OC [Compound 4p, (Z)-2-{[4-(4-Chlorobenzylidene)-5-oxo-1-phenyl-4,5-dihydro-1H-imidazol-2-yl]thio}-N-(3,4,5-trimethoxyphenyl)acetamide] | 12.8 ± 1.83 µM | 80 ± 37 nM | 152.23 and 152.33 | 2.69 ± 1.29 µM | 31.42 ± 3.70 pg/mL | 30.70 pg/mL and 30.70 ± 3.70 pg/mL | 25.4 ± 1.26 µM | 1.75 folds | – | – | – |
| O=C(CSC1=N/C(=C\c2ccc(Cl)cc2)C(=O)N1c1ccccc1)Nc1cccc(C(F)(F)F)c1 [Compound 4q, (Z)-2-{[4-(4-Chlorobenzylidene)-5-oxo-1-phenyl-4,5-dihydro-1H-imidazol-2-yl]thio}-N-[3-(trifluoromethyl)phenyl]acetamide] | 10.1 ± 1.61 µM | 90 ± 40 nM | 111.90 | 3.99 ± 1.9 µM | 5.26 pg/mL and 5.26 ± 0.61 pg/mL | 4.54 ± 0.61 pg/mL | 56.2 ± 1.26 µM | 3.1 folds | 4.6 fold | ~ 5 fold | ~ 5 folds |
| O=C(CSC1=N/C(=C\c2ccc(Cl)cc2)C(=O)N1c1ccccc1)NCc1ccccc1 [Compound 4r, (Z)-N-Benzyl-2-[(4-(4-chlorobenzylidene)-5-oxo-1-phenyl-4,5-dihydro-1H-imidazol-2-yl)thio]acetamide] | 10.1 ± 1.6 µM | 130 ± 57 nM | 78.00 | 2.47 ± 1.14 µM | 21.02 ± 5.03 pg/mL | 20.29 ± 5.03 pg/mL | 72.4 ± 1.85 µM | – | – | – | – |
| COc1ccc2c(c1)c(CC(=O)O)c(C)n2C(=O)c1ccc(Cl)cc1 [Indomethacin, indomethacin, reference compound] | – | – | – | – | – | – | 55 ± 1.26 µM | – | – | – | – |
